From ChEMBL document CHEMBL1201862, “PubChem BioAssay data set” (2004)
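48-hour exposure; five concentrations; linearly interpolated endpoints. The concentration for 50% growth inhibition is given as GI50.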 Activity calls are given as the source filed them. No stated cut-off is given here; in the data, active = GI50 up to about 1.1 µM and inactive = higher.

Legend:
Assay in all cases: DTP human tumour cell line panel, 48 h
A498 = system: A498
SF-295 = system: SF-295
SK-MEL-5 = system: SK-MEL-5
MOLT-4 = system: MOLT-4
SNB-19 = system: SNB-19
NCI-H226 = system: NCI-H226
KM12 = system: KM12
NCI-H522 = system: NCI-H522
LOX IMVI = system: LOX IMVI
Hs-578T = system: Hs-578T
HCT-116 = system: HCT-116
UACC-257 = system: UACC-257
NCI-H23 = system: NCI-H23
HL-60 = system: HL-60
SR = system: SR
HOP-62 = system: HOP-62
EKVX = system: EKVX
OVCAR-4 = system: OVCAR-4
SNB-75 = system: SNB-75
SK-OV-3 = system: SK-OV-3

Measured: GI50

Fc1cc(C2=Nn3c(CNc4ccc(Cl)cc4)nnc3S/C2=C\c2ccc(-c3ccc(Cl)cc3)o2)c(Cl)cc1Cl
inactive: A498 17.5 µM | SF-295 22.3 µM | SK-MEL-5 26.1 µM | MOLT-4 3.33 µM | SNB-19 44 µM | NCI-H226 26.5 µM | KM12 > 100 µM | NCI-H522 38 µM | LOX IMVI 22.8 µM | Hs-578T 46.7 µM | HCT-116 63.2 µM | UACC-257 > 100 µM | NCI-H23 81.8 µM | HL-60 > 100 µM | SR 29.6 µM | HOP-62 21.8 µM | EKVX 7.52 µM

CSC[C@H](NC(=O)COc1cccc2cnccc12)C(=O)NC(Cc1ccccc1)C(O)C(=O)N1CSC[C@H]1C(=O)NC(C)(C)C (stereo partly drawn)
inactive: OVCAR-4 57.5 µM | SNB-75 78.9 µM | A498 68.2 µM | SF-295 60.4 µM | SK-OV-3 > 100 µM | SK-MEL-5 > 10 µM | MOLT-4 17.7 µM | SNB-19 > 100 µM | NCI-H226 > 100 µM | KM12 53.2 µM | NCI-H522 > 100 µM | LOX IMVI 31.8 µM | Hs-578T 89.3 µM | HCT-116 23 µM | UACC-257 29.2 µM | NCI-H23 82.4 µM | HL-60 33.8 µM | SR 36.8 µM | HOP-62 > 100 µM

C=C[C@@H]1C(CO)=CCC2[C@H]1CCC1C(C)(C)C(=O)CC[C@]21C (stereo partly drawn)
inactive: OVCAR-4 > 100 µM | A498 > 100 µM | SF-295 > 100 µM | SK-OV-3 > 100 µM | SK-MEL-5 > 100 µM | MOLT-4 > 100 µM | SNB-19 > 100 µM | NCI-H226 > 100 µM | KM12 > 100 µM | NCI-H522 > 100 µM | LOX IMVI > 100 µM | Hs-578T > 100 µM | HCT-116 > 100 µM | UACC-257 > 100 µM | NCI-H23 > 100 µM | HL-60 59.3 µM | SR > 100 µM | HOP-62 > 100 µM | EKVX > 100 µM

O=C1Nc2c(Cl)cc(Cl)cc2/C1=N/N=C/c1ccco1
inactive: OVCAR-4 49.3 µM | SNB-75 10.5 µM | A498 21.2 µM | SF-295 31.7 µM | SK-OV-3 67.3 µM | SK-MEL-5 29.6 µM | MOLT-4 27.2 µM | SNB-19 80.7 µM | NCI-H226 23 µM | KM12 25.4 µM | LOX IMVI 17.8 µM | Hs-578T 32.7 µM | HCT-116 33 µM | UACC-257 44 µM | NCI-H23 25 µM | HL-60 29.7 µM | SR 24.8 µM | HOP-62 34.7 µM | EKVX 7.6 µM

COC1(c2ccc(Cl)cc2)SC=C(C)n2c1noc2=O (stereo not drawn)
inactive: OVCAR-4 63.8 µM | A498 > 100 µM | SF-295 > 100 µM | SK-MEL-5 > 100 µM | MOLT-4 > 100 µM | SNB-19 > 100 µM | KM12 86.9 µM | NCI-H522 89.5 µM | LOX IMVI > 100 µM | Hs-578T > 100 µM | HCT-116 78.7 µM | UACC-257 > 100 µM | NCI-H23 > 100 µM | HL-60 > 100 µM | SR > 100 µM | EKVX > 100 µM

O=C1CC(C(CC(=O)c2ccccc2)c2ccccc2)C(=O)c2ccccc2N1 (stereo not drawn)
inactive: SNB-75 30.8 µM | A498 > 100 µM | SF-295 37.2 µM | SK-OV-3 > 100 µM | SK-MEL-5 24.2 µM | MOLT-4 17.8 µM | SNB-19 51.5 µM | NCI-H226 24.4 µM | KM12 49.7 µM | LOX IMVI 35.4 µM | Hs-578T 43.5 µM | HCT-116 49.3 µM | UACC-257 88.5 µM | NCI-H23 > 100 µM | HL-60 31.5 µM | SR 16 µM | HOP-62 51.1 µM | EKVX 40.5 µM
